# Values of other authors in US20250127900A1, “STABLE PHARMACEUTICAL COMPOSITIONS” (MANKIND PHARMA LTD., priority 2021, published 2025).
# Legend:
# [1] = for Acceptable intake, EMA: EMA limit; for Acceptable intake, FDA: FDA limit
# [2] = in vivo
SMILES,"Acceptable intake, EMA [1]","Acceptable intake, FDA [1]",LD50 [2]
CCN(CC)N=O [N-Nitrosodiethylamine],26.5 ng/day,26.5 ng/day,–
CC(C)N(N=O)C(C)C [N-Nitrosodiisopropylamine],26.5 ng/day,26.5 ng/day,–
CN(C)N=O [N-Nitrosodimethylamine],96 ng/day,96 ng/day,10 mg/kg
